Measured values from patent US9179694B2, “Method and composition for enhancing milk production and milk component concentrations” (PURINA ANIMAL NUTRITION LLC, priority 2003, dated 2015).

Assay: Dry matter feed intake in sorbitol feeding trials
Assay type: in vivo, Holstein cows
Conditions: for increase in dry matter feed intake: Pre-Partum Trial #1 (75 g/day wk −3..−1 only) versus Control Trial #1
Procedure: To determine the dry matter weight (or dry matter basis or dry basis) of a particular sample, the sample is first weighed. The weighed sample is then dried in an oven at a temperature that is adequate to drive off moisture from the sample without degrading the sample components, such as a temperature ranging from about 100° C. to about 110° C. The oven drying is continued until the weight of the dried sample remains constant, despite additional oven drying. During the pre-partum period, for all cows utilized in Example One or Example Two, the pre-partum control feed, as modified to include any sorbitol indicated above for the different trials, was placed in the feeding troughs of the different cows participating in the different trials once daily in the morning. Thereafter, these different pre-partum feeds (the pre-partum control feed, including any incorporated sorbitol dosage of a particular trial during the pre-partum period) of the different trials were lightly stirred, separately and individually, in front of the cows of the different trials three times per day during the pre-partum period to encourage additional feed ingestion by the cows. Leftover rations from the previous day's feeding were collected and weighed from each feeding trough during the pre-partum period, prior to feeding the test cows on a subsequent day. The cows of the different trials received a sufficient amount of the pre-partum to ensure at least about ten weight percent of the pre-partum feeds of the different trials remained in the feeding troughs of each trial each day of the pre-partum period, based on the amount of the different pre-partum feeds of the different trials provided at the beginning of each day. Feed refusals were measured daily during the pre-partum period, and water was supplied ad libitum. During the early post-partum period, for all cows utilized in Example One or Example Two, the first post-partum control feed, as modified to include any sorbitol indicated above for the different trials, was placed in the feeding troughs of the different cows participating in the different trials once daily in the morning. Thereafter, these first post-partum feeds (the first post-partum control feed, including any incorporated sorbitol dosage of a particular trial during the early post-partum period) of the different trials were lightly stirred, separately and individually, in front of the cows of the different trials three times per day during the early post-partum period to encourage additional feed ingestion by the cows. Leftover rations from the previous day's feeding were collected and weighed from each feeding trough during the early post-partum period, prior to feeding the test cows on a subsequent day. The cows of the different trials received a sufficient amount of the first post-partum feed to ensure at least about ten weight percent of the first post-partum feeds of the different trials remained in the feeding troughs of each trial each day of the early post-partum period, based on the amount of the different first post-partum feeds of the different trials provided at the beginning of each day. Feed refusals were measured daily during the early post-partum period, and water was supplied ad libitum. […] Thereafter, the second post-partum control feed were lightly stirred, separately and individually, in front of the cows of the different trials three times per day during the weeks +5 through +8 to encourage additional feed ingestion by the cows. Leftover rations from the previous day's feeding were collected and weighed from each feeding trough during weeks +5 through +8, prior to feeding the test cows on a subsequent day. […]

OC[C@@H](O)[C@@H](O)[C@H](O)[C@@H](O)CO [sorbitol]
Dry Matter Feed Intake (Pre-Partum Trial #1 (75/0/0 g/day in wk −3..−1/+1..+4/+5..+8), multiparious cows, weeks +1 through +8): 44.5 lbs/day | Dry Matter Feed Intake (Pre-Partum Trial #1 (75/0/0 g/day in wk −3..−1/+1..+4/+5..+8), multiparious cows, weeks −3 through −1): 29.9 lbs/day | Dry Matter Feed Intake (Pre-Partum Trial #1 (75/0/0 g/day in wk −3..−1/+1..+4/+5..+8), primiparious cows, weeks +1 through +8): 34.2 lbs/day | Dry Matter Feed Intake (Pre-Partum Trial #1 (75/0/0 g/day in wk −3..−1/+1..+4/+5..+8), primiparious cows, weeks −3 through −1): 17.8 lbs/day | increase in dry matter feed intake (multiparious cows, weeks +1 through +8): +9.6% | increase in dry matter feed intake (primiparious cows, weeks +1 through +8): +7.9% | Dry Matter Intake (Pre-Partum Trial #2 (75/0/100 g/day in wk −3..−1/+1..+4/+5..+8), multiparious cows, week +1): 32.7 lbs/day | Change in Dry Matter Feed Intake (Pre-Partum Trial #2 (75/0/100 g/day in wk −3..−1/+1..+4/+5..+8), multiparious cows, week +1 versus −1): 1.97 lbs/day | Dry Matter Intake (Pre-Partum Trial #2 (75/0/100 g/day in wk −3..−1/+1..+4/+5..+8), multiparious cows, week +2): 42.5 lbs/day | Dry Matter Intake (Pre-Partum Trial #2 (75/0/100 g/day in wk −3..−1/+1..+4/+5..+8), multiparious cows, week +3): 46.2 lbs/day | Dry Matter Intake (Pre-Partum Trial #2 (75/0/100 g/day in wk −3..−1/+1..+4/+5..+8), multiparious cows, week +4): 50.1 lbs/day | Dry Matter Intake (Pre-Partum Trial #2 (75/0/100 g/day in wk −3..−1/+1..+4/+5..+8), multiparious cows, week +5): 52.4 lbs/day | Dry Matter Intake (Pre-Partum Trial #2 (75/0/100 g/day in wk −3..−1/+1..+4/+5..+8), multiparious cows, week +6): 53.9 lbs/day | Dry Matter Intake (Pre-Partum Trial #2 (75/0/100 g/day in wk −3..−1/+1..+4/+5..+8), multiparious cows, week +7): 56.1 lbs/day | Dry Matter Intake (Pre-Partum Trial #2 (75/0/100 g/day in wk −3..−1/+1..+4/+5..+8), multiparious cows, week +8): 53.8 lbs/day | Dry Matter Intake (Pre-Partum Trial #2 (75/0/100 g/day in wk −3..−1/+1..+4/+5..+8), multiparious cows, week −1): 30.7 lbs/day | Dry Matter Intake (Pre-Partum Trial #2 (75/0/100 g/day in wk −3..−1/+1..+4/+5..+8), multiparious cows, week −2): 33.5 lbs/day | Change in Dry Matter Feed Intake (Pre-Partum Trial #2 (75/0/100 g/day in wk −3..−1/+1..+4/+5..+8), multiparious cows, week −2 versus −1): −2.88 lbs/day | Dry Matter Intake (Pre-Partum Trial #2 (75/0/100 g/day in wk −3..−1/+1..+4/+5..+8), multiparious cows, week −3): 30.9 lbs/day | Dry Matter Intake (Pre-Partum Trial #2 (75/0/100 g/day in wk −3..−1/+1..+4/+5..+8), multiparious cows, weeks +1 through +4): 42.9 lbs/day | Dry Matter Intake (Pre-Partum Trial #2 (75/0/100 g/day in wk −3..−1/+1..+4/+5..+8), multiparious cows, weeks +1 through +8): 48.4 lbs/day | Dry Matter Intake (Pre-Partum Trial #2 (75/0/100 g/day in wk −3..−1/+1..+4/+5..+8), multiparious cows, weeks +5 through +8): 54.2 lbs/day | Dry Matter Intake (Pre-Partum Trial #2 (75/0/100 g/day in wk −3..−1/+1..+4/+5..+8), multiparious cows, weeks −3 through −1): 31.8 lbs/day | decrease in dry matter feed intake (Pre-Partum Trial #2 (75 g/day pre-partum) versus Control Trial #2, multiparious cows, pre-partum period (weeks −3 through −1)): 7.0% | Dry Matter Intake (Pre/Post Trial #1 (150/125/100 g/day in wk −3..−1/+1..+4/+5..+8), multiparious cows, week +1): 36.6 lbs/day | Dry Matter Feed Intake (Pre/Post Trial #1 (150/125/100 g/day in wk −3..−1/+1..+4/+5..+8), multiparious cows, week +1, two-trial comparison with Control Trial #2 (Table 22)): 36.7 lbs/day | Change in Dry Matter Feed Intake (Pre/Post Trial #1 (150/125/100 g/day in wk −3..−1/+1..+4/+5..+8), multiparious cows, week +1 versus −1): 3.37 lbs/day | Change in Dry Matter Feed Intake (Pre/Post Trial #1 (150/125/100 g/day in wk −3..−1/+1..+4/+5..+8), multiparious cows, week +1 versus −1, two-trial comparison with Control Trial #2 (Table 22)): 3.35 lbs/day | Dry Matter Intake (Pre/Post Trial #1 (150/125/100 g/day in wk −3..−1/+1..+4/+5..+8), multiparious cows, week +2): 45.3 lbs/day | Dry Matter Feed Intake (Pre/Post Trial #1 (150/125/100 g/day in wk −3..−1/+1..+4/+5..+8), multiparious cows, week +2, two-trial comparison with Control Trial #2 (Table 22)): 45.6 lbs/day | Dry Matter Intake (Pre/Post Trial #1 (150/125/100 g/day in wk −3..−1/+1..+4/+5..+8), multiparious cows, week +3): 48.5 lbs/day | Dry Matter Feed Intake (Pre/Post Trial #1 (150/125/100 g/day in wk −3..−1/+1..+4/+5..+8), multiparious cows, week +3, two-trial comparison with Control Trial #2 (Table 22)): 48.8 lbs/day | Dry Matter Intake (Pre/Post Trial #1 (150/125/100 g/day in wk −3..−1/+1..+4/+5..+8), multiparious cows, week +4): 51.2 lbs/day | Dry Matter Feed Intake (Pre/Post Trial #1 (150/125/100 g/day in wk −3..−1/+1..+4/+5..+8), multiparious cows, week +4, two-trial comparison with Control Trial #2 (Table 22)): 51.5 lbs/day | Dry Matter Intake (Pre/Post Trial #1 (150/125/100 g/day in wk −3..−1/+1..+4/+5..+8), multiparious cows, week +5): 53.9 lbs/day | Dry Matter Feed Intake (Pre/Post Trial #1 (150/125/100 g/day in wk −3..−1/+1..+4/+5..+8), multiparious cows, week +5, two-trial comparison with Control Trial #2 (Table 22)): 54.2 lbs/day | Dry Matter Intake (Pre/Post Trial #1 (150/125/100 g/day in wk −3..−1/+1..+4/+5..+8), multiparious cows, week +6): 53.7 lbs/day | Dry Matter Feed Intake (Pre/Post Trial #1 (150/125/100 g/day in wk −3..−1/+1..+4/+5..+8), multiparious cows, week +6, two-trial comparison with Control Trial #2 (Table 22)): 54.1 lbs/day | Dry Matter Intake (Pre/Post Trial #1 (150/125/100 g/day in wk −3..−1/+1..+4/+5..+8), multiparious cows, week +7): 54.5 lbs/day
